Measurements reported in US7576094B2, “Spiro derivatives as lipoxygenase inhibitors” (Eli Lilly and Company, priority 2004, dated 2009).

Columns and labels:
[1] = molecular target: T1, porcine leukocyte 12/15-Lipoxygenase (Sus scrofa, UniProt P16469); assay: 12/15-Lipoxygenase Enzyme Assay; type: biochemical; details: 70 μM arachidonic acid, 10 minute incubation at room temperature, FOX reagent, absorbance at 620 nm; read-out: inhibition of 12/15-Lipoxygenase with an IC50
T1 sequence (P16469 1-663): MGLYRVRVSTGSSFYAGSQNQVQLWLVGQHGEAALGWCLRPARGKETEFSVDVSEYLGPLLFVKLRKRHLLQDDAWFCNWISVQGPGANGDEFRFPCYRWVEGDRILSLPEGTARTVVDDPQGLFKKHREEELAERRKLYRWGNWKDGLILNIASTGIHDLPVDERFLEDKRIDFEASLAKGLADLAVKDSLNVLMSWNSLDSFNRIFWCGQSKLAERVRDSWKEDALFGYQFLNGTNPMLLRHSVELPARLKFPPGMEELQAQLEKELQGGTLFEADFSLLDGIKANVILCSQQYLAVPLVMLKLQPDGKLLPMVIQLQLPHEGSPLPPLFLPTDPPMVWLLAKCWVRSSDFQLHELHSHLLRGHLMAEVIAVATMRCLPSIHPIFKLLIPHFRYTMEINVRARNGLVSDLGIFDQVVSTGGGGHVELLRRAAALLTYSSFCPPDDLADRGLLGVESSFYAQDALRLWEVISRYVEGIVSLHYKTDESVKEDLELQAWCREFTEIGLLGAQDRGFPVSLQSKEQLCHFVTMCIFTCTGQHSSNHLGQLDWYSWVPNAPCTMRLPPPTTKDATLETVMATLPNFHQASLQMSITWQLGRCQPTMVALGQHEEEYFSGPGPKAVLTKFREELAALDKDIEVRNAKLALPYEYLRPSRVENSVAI
From the text: This procedure was used for measuring the enzymatic activity of porcine leukocyte 12/15-Lipoxygenase using a […] method based on the ferric oxidation of xylenol orange.
• 96 well flat bottom microfilter plates (VWR, Catalog # 62402-933 9295) • Lipoxygenase screening assay buffer (Cayman, Catalog # 760710) • Porcine leukocyte 12/15-Lipoxygenase (Cayman, Catalog # 60300) • Arachidonic Acid (Sigma, Catalog # A3555) • Xylenol orange tetrasodium salt (Aldrich, Catalog # 227854) • Iron (II) sulfate heptahydrate (Sigma, Catalog # F7002) • Sulfuric acid (95-98%) [18M] • Methanol Procedure
Porcine Leukocyte 12/15-Lipoxygenase (Cayman Cat # 60300) was used in this assay. Test compound and/or vehicle was added to 1.3 μL 12/15-Lipoxygenase in 50 mM Tris-HCl buffer, pH 7.4. The reaction was initiated by addition of 70 μM arachidonic acid in Tris-HCl buffer, pH 7.4, and terminated after a 10 minute incubation at room temperature by addition of FOX reagent (25 mM sulfuric acid, 100 μM xylenol orange, 100 μM iron (II) sulfate, methanol:water 9:1). The yellow color of acidified xylenol orange was converted to a blue color by the lipid hydroperoxide-mediated oxidation of Fe^2+ ions and the interaction of the resulting Fe^3+ ions with the dye. The complex was allowed to form during a 1 hour incubation at room temperature with shaking. Absorbance of the Fe^3+ complex was then measured at […] using a spectrophotometer.
Negative controls contained enzyme during the incubation step but substrate was not added until after the FOX reagent. Compounds are screened at 5 concentrations in triplicate starting at 10 μM

[2] = test system: release of the leukotriene LTB4 from a neutrophil cell line (MPRO cell line); assay: LTB4-Cell Assay; type: cell-based; details: Mus musculus, 1 h, read-out: inhibition of LTB4 with an EC50
From the text: • This procedure was used for measuring the release of the leukotriene LTB4 from a neutrophil cell line using a competitive ELISA technique. Materials and Equipments Materials for Cell Preparation and Experiment • MPRO cell line (ATCC, Catalog # CRL-11422) • Calcium ionophore (A23187) (Sigma, Catalog # C7522) • Nordihydroguaiaretic acid (NDGA) (BioMol ,Catalog # EI101-0001) • Retinoic Acid (all-trans) (ATRA) (Sigma, Catalog # 95152) • Sterile, tissue-culture treated 96-well plates (Corning, Catalog # 3614) Materials for LTB4 ELISA • Precoated (Mouse Anti-Rabbit IgG) EIA 96 Well Strip Plates (Cayman, Catalog # 400004) • Leukotriene B4 AChE Tracer (Cayman Catalog # 420110) • Leukotriene B4 EIA Antiserum (Cayman Catalog # 420112) • Ellman's Reagent (Cayman Catalog # 400050) • EIA Buffer Concentrate (10×) (Cayman Catalog # 400060) • Wash Buffer Concentrate (400×) (Cayman Catalog # 400062) • Plastic plate covers (Cayman Catalog # 400012) Procedure
A mouse promyelocytic cell line (MPRO) was used in this assay. These cells are committed immature neutrophils that can be differentiated into mature neutrophils by treatment with 10 μM all-trans retinoic acid for 72 hours.
Following 72 hours of differentiation, cells were stimulated with 1 μM of a calcium ionophore (A23187) in the presence or absence of test compound or vehicle for 1 hour at 37° C. After this time, supernatant was removed from the cells and the LTB4 levels were determined following manufacturer's instructions, using a Leukotriene B4 EIA kit from Cayman (Cat # 5201 11). The negative controls were media samples from differentiated but un-stimulated cells. The compounds were screened at 5 concentrations in quadruplicate starting at 10 μM.

[3] = test system: LTB4 production in human whole blood; assay: Inhibition of LTB4 Production in Blood; type: cell-based; details: 1 h, 20 μM A23187, 60 minutes at 37° C., LTB4 in plasma by ELISA, read-out: protection against LTB4 at an EC50
Summary of the method: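 Citrated human whole blood preincubated 15 min at 37 °C with compound (top final 30 μM, 1:3 dilutions, quadruplicate), then stimulated with 20 μM A23187 for 60 min at 37 °C. Plasma LTB4 quantified by ELISA; IC50 from percent inhibition versus vehicle.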

[4] = molecular target: T2, human recombinant 5-Lipoxygenase (Homo sapiens, UniProt P09917); assay: 5-Lipoxygenase Enzyme Assay; type: biochemical; details: 70 μM arachidonic acid, 10 minute incubation at room temperature, FOX reagent, absorbance at 620 nm; read-out: inhibition of 5-Lipoxygenase with an IC50
T2 sequence (P09917 1-674): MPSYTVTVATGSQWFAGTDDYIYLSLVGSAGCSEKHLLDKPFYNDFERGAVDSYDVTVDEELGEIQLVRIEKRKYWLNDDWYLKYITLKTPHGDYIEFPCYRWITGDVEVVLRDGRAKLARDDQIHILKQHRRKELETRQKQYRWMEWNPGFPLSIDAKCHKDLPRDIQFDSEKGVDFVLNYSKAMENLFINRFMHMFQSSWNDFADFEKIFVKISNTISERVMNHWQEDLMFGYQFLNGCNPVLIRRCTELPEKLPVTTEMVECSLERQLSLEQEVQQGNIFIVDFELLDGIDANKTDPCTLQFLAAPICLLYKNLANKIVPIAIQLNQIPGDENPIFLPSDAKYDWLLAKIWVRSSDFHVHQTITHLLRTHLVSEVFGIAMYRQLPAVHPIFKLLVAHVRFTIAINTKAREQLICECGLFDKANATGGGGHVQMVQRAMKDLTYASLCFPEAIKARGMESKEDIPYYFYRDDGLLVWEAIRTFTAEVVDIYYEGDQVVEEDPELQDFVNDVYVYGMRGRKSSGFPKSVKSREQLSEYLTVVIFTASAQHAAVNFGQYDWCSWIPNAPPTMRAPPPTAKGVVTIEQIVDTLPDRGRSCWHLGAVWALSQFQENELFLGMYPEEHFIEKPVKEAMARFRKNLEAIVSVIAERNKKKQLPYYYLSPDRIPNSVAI
Summary of the method: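 Recombinant human 5-LOX in 50 mM Tris-HCl pH 7.4 was preincubated with compound, then 70 μM arachidonic acid was added for 10 min at room temperature. Hydroperoxide was read by FOX reagent (ferric xylenol orange, 1 h complex formation) as absorbance at 620 nm. Five concentrations in triplicate were tested, starting at 10 μM.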

Compound	IC50 [1]	EC50 [2]	EC50 [3]	IC50 [4]
Cc1c(O)cc2c(c1C)N(c1ccc(Cl)cc1)CC1(CCC1)C2O (stereo not drawn) [1′-(4-chlorophenyl)-7′,8′-dimethyl-2′,4′-dihydro-1′H-spiro[cyclobutane-1,3′-quinoline]-4′,6′-diol]	< 5 µM	–	–	–
Cc1c(O)cc2c(c1C)N(c1ccc(F)cc1)CC1(CCC1)C2 [1′-(4-fluorophenyl)-7′,8′-dimethyl-2′,4′-dihydro-1′H-spiro[cyclobutane-1,3′-quinolin]-6′-ol]	< 5 µM	–	–	–
COc1ccc(N2CC3(CCC3)Cc3cc(O)c(C)c(C)c32)cc1 [1′-(4-methoxyphenyl)-7′,8′-dimethyl-2′,4′-dihydro-1′H-spiro[cyclobutane-1,3′-quinolin]-6′-ol]	< 5 µM	–	–	–
CCOC1CC2(CCC2)Oc2cc(C)c(O)c(C)c21 (stereo not drawn) [4-ethoxy-5,7-dimethyl-3,4-dihydrospiro[chromene-2,1′-cyclobutan]-6-ol]	–	< 5 µM	< 10 µM	< 0.3 µM
COC1c2c(C)c(O)c(C)c(C)c2OCC12CCC2 (stereo not drawn) [4-methoxy-5,7,8-trimethylspiro[chroman-3,1′-cyclobutan]-6-ol]	–	< 5 µM	< 10 µM	< 0.3 µM
COC1CC2(CCC2)Oc2cc(C)c(O)c(C)c21 (stereo not drawn) [4-methoxy-5,7-dimethyl-3,4-dihydrospiro[chromene-2,1′-cyclobutan]-6-ol]	–	< 5 µM	< 10 µM	< 0.3 µM
CCc1cc2c(c(CC)c1O)/C(=N/OC)CC1(CCC1)O2 [5,7-diethyl-6-hydroxyspiro[chromene-2,1′-cyclobutan]-4(3H)-one O-methyloxime]	–	< 5 µM	< 10 µM	< 0.3 µM
CCc1cc2c(c(CC)c1O)/C(=N/O)CC1(CCC1)O2 [5,7-diethyl-6-hydroxyspiro[chromene-2,1′-cyclobutan]-4(3H)-one oxime]	–	< 5 µM	< 10 µM	< 0.3 µM
CC(C)c1cc2c(c(C(C)C)c1O)CCC1(CCC1)O2 [5,7-diisopropyl-3,4-dihydrospiro[chromene-2,1′-cyclobutan]-6-ol]	–	< 5 µM	< 10 µM	< 0.3 µM
Cc1c(O)c(C)c(-c2cnco2)c2c1CCC1(CCC1)O2 [5,7-dimethyl-8-(1,3-oxazol-5-yl)-3,4-dihydrospiro[chromene-2,1′-cyclobutan]-6-ol]	–	< 5 µM	< 10 µM	< 0.3 µM
CCCCc1cc(-c2c(C)c(O)c(C)c3c2OC2(CCC2)CC3)no1 [5,7-dimethyl-8-(5-butyl-isoxazol-3-yl)-3,4-dihydrospiro[chromene-2,1′-cyclobutan]-6-ol]	–	< 5 µM	< 10 µM	< 0.3 µM
Cc1c(C)c2c(c(C)c1O)C(C#N)CC1(CCC1)O2 (stereo not drawn) [6-hydroxy-5,7,8-trimethyl-3,4-dihydrospiro[chromene-2,1′-cyclobutane]-4-carbonitrile]	–	< 5 µM	< 10 µM	< 0.3 µM
Cc1cc2c(c(C)c1O)/C(=N/O)CC1(CCC1)O2 [6-hydroxy-5,7-dimethylspiro[chromene-2,1′-cyclobutan]-4(3H)-one oxime]	–	< 5 µM	< 10 µM	< 0.3 µM
CCO/N=C1\CC2(CCC2)Sc2c(C)c(C)c(O)c(C)c21 [6′-hydroxy-5′,7′,8′-trimethylspiro[cyclobutane-1,2′-thiochromen]-4′(3′H)-one O-ethyloxime]	–	< 5 µM	< 10 µM	< 0.3 µM
CCO/N=C1\CC2(CCC2)Sc2cc(C)c(O)c(C)c21 [6′-hydroxy-5′,7′-dimethylspiro[cyclobutane-1,2′-thiochromen]-4′(3′H)-one O-ethyloxime]	–	< 5 µM	< 10 µM	< 0.3 µM
CO/N=C1\CC2(CCC2)Sc2cc(C)c(O)c(C)c21 [6′-hydroxy-5′,7′-dimethylspiro[cyclobutane-1,2′-thiochromen]-4′(3′H)-one O-methyloxime]	–	< 5 µM	< 10 µM	< 0.3 µM
Cc1c(O)cc2c(c1C)OCC1(CCC1)C2 [7,8-dimethylspiro[chroman-3,1′-cyclobutan]-6-ol]	–	< 5 µM	< 10 µM	< 0.3 µM
Cc1c(O)cc2c(c1C)OCC1(CC1)C2 [7,8-dimethylspiro[chroman-3,1′-cyclopropan]-6-ol]	–	< 5 µM	< 10 µM	< 0.3 µM
CCONCc1c(C)c(O)c(C)c2c1OC1(CCC1)CC2 [8-[(ethoxyamino)methyl]-5,7-dimethyl-3,4-dihydrospiro[chromene-2,1′-cyclobutan]-6-ol]	–	< 5 µM	< 10 µM	< 0.3 µM
CONCc1c(C)c(O)c(C)c2c1OC1(CCC1)CC2 [8-[(methoxyamino)methyl]-5,7-dimethyl-3,4-dihydrospiro[chromene-2,1′-cyclobutan]-6-ol]	–	< 5 µM	< 10 µM	< 0.3 µM
